Results on 2 compounds are retold here after patent US5432172A, “Biological applications of alkaloids derived from the tunicate Eudistoma sp” (The Research Foundation of State University of New York, priority 1993, dated 1995).

Like-named read-outs stand apart in the source and are kept apart here.

For assay [1], the system named is neuroblastoma N1E-115 cells. Put plainly: Growth and morphological differentiation of mouse neuroblastoma N1E-115 cells. The conditions noted are these: for range of effective concentrations that inhibited cell proliferation and induced morphological differentiation / effects on cell appearance: N1E-115 cells; for range of effective concentrations that inhibited cell proliferation and induced morphological differentiation: below range no noticeable effect, above range cytotoxic; for effects on cell appearance: morphology; for most effective concentration for the cells tested: summary, cells tested in the present invention. The procedure: A,B: Untreated cells, 3 (A) and 8 (B) days after subculture. C,D: Cells grown for 3 (C) and 8 (D) days with 12.8 μM Debromoshermilamine. E,F: Cells grown for 7 days with Isosegoline A (39 μM) and Norsegoline (16.3 μM), respectively.
A,B: Untreated cells 3 (A) and 6 (B) days after subculture. C,D: Cells grown for 3 (C) and 6 (D) days with 50 μM forskolin. E,F: Cells grown for 3 (E) and 6 (F) days with 39 μM Segoline A. G,H: Cells grown for 3 (G) and 6 (H) days with 0.14 μM Eilatin.
Cells were grown for six days in the absence of drugs (A), or in the presence of: 10 μM 4-methylpyrido[2,3,4-kl]acridine (B), 4 μM pyrido[2,3,4-kl]acridine (C), 0.08 μM Eilatin (D), 75 μM forskolin (E).
The inventors chose the neuroblastoma N1E-115 cells because these tumor-derived cells can be induced to express characteristic neuronal properties by a variety of procedures see Spector, "Electrophysiology of clonal nerve cell lines. In: Excitable Cells in Tissue Culture", Nelson et al. eds., Plenum, New York 247-277 (1981) and can serve as a useful experimental system in which to explore the effects of the Eudistoma alkaloids on the biological properties of both cancer cells and neuronal cells.
The N1E-115 cells were exposed to various concentrations of the six (6) natural products shown in FIG. 1, and of the two synthetic pyridoacridines shown in Scheme III of FIG. 2. […] A,B: Untreated cells, 3 (A) and 8 (B) days after subculture. C,D: Cells grown for 3 (C) and (8) days with 12.8 μM Debromoshermilamine. E,F: Cells grown for 7 days with Isosegoline A (39 μM) and Norsegoline (16.3 μM), respectively. FIG. 5 illustrates the appearance of N1E-115 cells 6 days after replating in the absence (A) and in the presence of 10 μM 4-methylpyrido[2,3,4-kl]acridine (B), or 4 μM pyrido[2,3,4-kl]acridine.

In assay [2] the test system is normal hamster fibroblast NIL8 cell line. Nature of the assay: Growth and morphology of normal NIL8 fibroblast cells. In kind it is cell-based. The note with it: 12.8 μM Debromoshermilamine, 5 days, single application. How it is done:
Cells were grown for 5 days in the absence of drugs (A), and in the presence of 25 μM forskolin (B), 1.4 μM Eilatin (C), or 12.8 μM Debromoshermilamine (D). […]
As illustrated, a single application of 1.4 μM Eilatin or 12.8 μM Debromoshermilamine to NIL8 cells produced effects which are strikingly similar to those obtained by chronically treating time cells with agents that elevate or mimic cAMP. […] This predilection towards cancer cells is a very desirable property in developing potential drugs for the treatment of cancer.

The test system of assay [3] is pyruvate kinase. Put plainly: Pyruvate kinase activity in cultured rat hepatoma FAO cells. In kind it is cell-based. The note with it: for Km: control 0.14, read-out: Km for the substrate phosphoenolpyruvate (PEP); for inhibition of pyruvate kinase activity: submaximal substrate concentrations; for rise in the Km for substrate (phosphoenolpyruvate): versus control. The procedure: FIG. 11 is a graph showing the effects of the Eudistoma alkaloids on pyruvate kinase activity in cultured rat hepatoma FAO cells. Enzyme activity v/Vmax was assayed as described in Example IV in partially purified extracts from cells incubated for 1 h in the absence ( ) or presence of 100 μM CPT-cAMP (.cndot.) and 26 μM segoline A ( ) as a function of substrate concentrations (phosphoenolpyruvate, PEP).
1. Activity of pyruvate kinase--a key glycolytic enzyme whose activity is inhibited by cAMP-dependent phosphorylation.
FIG. 11 is a graph showing the effects of the Eudistoma alkaloids on pyruvate kinase activity in cultured rat hepatoma FAO cells. Enzyme activity v/Vmax was assayed in partially purified extracts from cells incubated for 1 h in the absence (squares) or presence of 100 μM 8-(4-chlorophenylthio) cyclic AMP (CPT-cAMP)-CPT-cAMP (circles) and 26 μM Segoline A (triangles) as a function of substrate concentrations (phosphoenolpyruvate, PEP).

In assay [4] the test system is PEPCK mRNA. Nature of the assay: Levels of PEPCK mRNA in FTO-2B rat hepatoma cells (Northern blot). In kind it is cell-based. The note with it: segoline A 5, 26 and 52 μM; Debromoshermilamine 2.6, 12.8 and 38.4 μM; 4 hours. The procedure:
FIG. 12 is a graph showing the effects of Eudistoma alkaloids on levels of PEPCK mRNA in FTO-2B rat hepatoma cells. The cells were exposed for 4 hours to serum-free medium which contained: 5 μM CPT-cAMP (lane 1), 5, 26 and 52 μM segoline A (lanes 2-4), 2.6, 12.8 and 38.4 μM Debromoshermilamine (lanes 5-7) or to serum-free medium alone (lane 8).
2. Induction of mRNA for P-enolpyruvate carboxykinase (PEPCK)--a key enzyme in the gluconeogenesis pathway in liver and kidney cells whose gene transcription rate is stimulated by cAMP see Hod et al., N.Y. Acad. Sci., 478, 31-45 (1986) and Hod et an., J. Biol. Chem., 263, 7747-7752 (1988).
FIG. 12 is a graph showing the effects of Eudistoma alkaloids on levels of PEPCK mRNA in FTO-2B rat hepatoma cells. The cells were exposed to medium which contained: 5 μM 8-CPT-cAMP, 5, 26 and 52 μM Segoline A, 2.6, 12.8 and 38.4 μM Debromoshermilamine or to control medium. The level of mRNA was determined by Northern blot analysis according to Hod et al., J. Biol. Chem., 259, 15603-15608 (1984) using the plasmid pPCK10rc as a hybridization probe, and quantified by densitometric scanning of the autoradiograms which is shown on the left.

In assay [5] the test system is rat anterior pituitary cells. Nature of the assay: Secretion of growth hormone (GH) from dispersed rat anterior pituitary cells. In kind it is cell-based. The conditions noted are these: 3 h; increasing concentrations. The text has this:
FIG. 13 is a graph showing the effects of Debromoshermilamine on the secretion of growth hormone (GH) from dispersed rat anterior pituitary cells. Each bar represents the mean ±s.e.m of four wells.
3. Growth hormone release from anterior pituitary cells which is stimulated by a number of hormonal factors that activate the adenylyl cyclase system and elevate cellular cAMP levels, see, Bilezikjian et al., Endocrinology, 113, 1726-1731 (1983); Ray et al., Mol. Cell. Endocrinology, 45, 175-182 (1986) and Gabriel et al., Neuroendocrinology, 50 170-176 (1989).
FIG. 13 is a graph showing the effects of debromoshermilamine on the secretion of growth hormone (GH) from dispersed rat anterior pituitary cells. Cells grown in 24-well multiwell plates were incubated for 3 h in fresh medium (DME) in the absence (control) or presence of 1 mM DbcAMP, and increasing concentrations of Debromoshermilamine as indicated. Hormone secretion was measured using rat GH radioimmunoassay. Each bar represents the mean ±s.e.m of four wells.

What is called Km is the substrate concentration at which the rate is half of its maximum.

Turning to `CC(=O)NCCc1c2c(c3nccc4c3c1Nc1ccccc1-4)NC(=O)CS2` [Debromoshermilamine], in assay [1], the “range of effective concentrations that inhibited cell proliferation and induced morphological differentiation” value is 6-32 μM; the “effects on cell appearance” value is “a large proportion of very flat cells of considerable size and relatively few neurites”; the “most effective concentration for the cells tested” value fell in the range of 6 to 32 µM. For the same compound, in assay [2], the “effect on cell shape of NIL8 cells” value is reported as “flatter” and the “effect on growth of NIL8 cells” value is on record as “growth was inhibited”. Also, in assay [3] (concentration of alkaloid not given), the Km was found to be 460 µM. Also, in assay [3], the “inhibition of pyruvate kinase activity” value is “inhibit pyruvate kinase activity” and the “rise in the Km for substrate (phosphoenolpyruvate)” value is “ca. 3 fold”. For the same compound, the “induction of PEPCK mRNA” value in assay [4] is reported as “stimulate the induction of PEPCK mRNA in a dose-dependent manner”. Further, the growth hormone release entry in assay [5] is “stimulate growth hormone release, again, in a dose-dependent manner”.

For the compound `COc1cc2c3c4c(ccnc14)-c1ccccc1N3C1(C)C(=O)NC(=O)C2C1C` (stereo not shown) [Segoline A], the “effect on cell division and morphological differentiation” value in assay [1] (39 μM Segoline A, 3 days, single application) was “inhibited cell division and induced morphological differentiation”. Further, the “long-term effect on cell division” value in assay [1] (39 μM Segoline A, 6 days, single application) is “cell division is completely blocked”. Moreover, in assay [1], the “range of effective concentrations that inhibited cell proliferation and induced morphological differentiation” value was 12-52 μM; the “effects on cell appearance” value was “flattened cell bodies as well as numerous long neurites”; the “most effective concentration for the cells tested” value lay within 12 to 52 µM. The Michaelis constant (Km) in assay [3] (26 μM segoline A, 1 h) was determined as 440 µM. For the same compound, in assay [3], the “inhibition of pyruvate kinase activity” value was “inhibit pyruvate kinase activity” and the “rise in the Km for substrate (phosphoenolpyruvate)” value is reported as “ca. 3 fold”. Further, the “induction of PEPCK mRNA” value in assay [4] is “stimulate the induction of PEPCK mRNA in a dose-dependent manner”.
